Laboratory results from publication PMC4522903 (Chemical communications (Cambridge, England), 2015).

Target: T1, Atm1p (Saccharomyces cerevisiae, UniProt P40416)
T1 sequence (P40416 27-690): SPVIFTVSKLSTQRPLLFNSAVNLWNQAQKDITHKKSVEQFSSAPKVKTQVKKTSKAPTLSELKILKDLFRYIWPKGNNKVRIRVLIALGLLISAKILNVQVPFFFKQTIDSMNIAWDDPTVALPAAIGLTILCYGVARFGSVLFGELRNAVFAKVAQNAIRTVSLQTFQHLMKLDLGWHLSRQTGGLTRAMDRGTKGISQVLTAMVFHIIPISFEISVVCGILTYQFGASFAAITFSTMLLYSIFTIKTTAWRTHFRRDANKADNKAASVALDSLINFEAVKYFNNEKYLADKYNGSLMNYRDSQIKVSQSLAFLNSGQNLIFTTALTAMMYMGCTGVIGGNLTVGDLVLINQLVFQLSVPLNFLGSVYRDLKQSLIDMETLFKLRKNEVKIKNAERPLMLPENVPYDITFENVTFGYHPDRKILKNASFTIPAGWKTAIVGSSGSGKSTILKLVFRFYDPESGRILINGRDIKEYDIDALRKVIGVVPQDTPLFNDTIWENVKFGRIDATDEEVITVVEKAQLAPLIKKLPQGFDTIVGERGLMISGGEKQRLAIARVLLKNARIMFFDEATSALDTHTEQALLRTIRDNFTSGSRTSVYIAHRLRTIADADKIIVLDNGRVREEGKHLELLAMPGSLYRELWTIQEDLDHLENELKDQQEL
Experiment: titration of labeled cluster to Atm1p
Type: binding
Conditions: labelled compound

- Kd: 118 ± 11 µM
Substance: fluorescein-labeled glutathione [2Fe-2S] cluster
